Measurements taken from ChEMBL document CHEMBL5696441 (Nat Chem Biol, 2011).
The source made the active and inactive calls. No cut-off for these calls is given here.

Columns and labels:
[1] = tested on: Epidermal growth factor receptor (Homo sapiens), P00533 [L861Q]; assay: Inhibition of human EGFR L861Q mutant assessed as residual activity at 1 uM using PolyEY as substrate in presence of 33P-ATP by ProQinase assay relative to control
[2] = tested on: Fibroblast growth factor receptor 3 (Homo sapiens), P22607 [K650E]; assay: Inhibition of human FGFR3 K650E mutant assessed as residual activity at 1 uM using PolyEY as substrate in presence of 33P-ATP by ProQinase assay relative to control
[3] = molecular target: Tyrosine-protein kinase Fyn (Homo sapiens) (UniProt P06241); assay: Inhibition of FYN (unknown origin) assessed as remaining activity at 1 uM by Kinome scan method relative to control
[4] = tested on: Leucine-rich repeat serine/threonine-protein kinase 2 (Homo sapiens), Q5S007 [R1441C]; assay: Inhibition of human LRRK2 R1441C mutant assessed as residual activity at 1 uM using RBER-CHKtide as substrate in presence of 33P-ATP by ProQinase assay relative to control
[5] = tested on: Proto-oncogene tyrosine-protein kinase receptor Ret (Homo sapiens), P07949 [V804L]; assay: Inhibition of human RET V804L mutant assessed as residual activity at 1 uM using polyEY as substrate in presence of 33P-ATP by ProQinase assay relative to control
[6] = Anti-inflammatory activity against human derived medium respond PBMC cells assessed as inhibition in stimulated IL-5 cytokine release incubated for 2 hrs in the presence of LPS/SEB/aCD28 by Luminex based sandwich immunoassay; assay type: functional, cell-based
[7] = molecular target: Activin receptor type-1 (Homo sapiens) (UniProt Q04771); assay: Inhibition of ACVR1 (unknown origin) assessed as remaining activity at 1 uM by Kinome scan method relative to control
[8] = molecular target: Ribosomal protein S6 kinase alpha-2 (Homo sapiens) (UniProt Q15349); assay: Inhibition of C-terminal kinase domain RPS6KA2 (unknown origin) assessed as remaining activity at 1 uM by Kinome scan method relative to control
[9] = tested on: Epidermal growth factor receptor (Homo sapiens), P00533 [UNDEFINED MUTATION]; assay: Inhibition of human EGFR d747-749/A750P mutant assessed as residual activity at 1 uM using PolyEY as substrate in presence of 33P-ATP by ProQinase assay relative to control
[10] = molecular target: Serine/threonine-protein kinase WNK3 (Homo sapiens) (UniProt Q9BYP7); assay: Inhibition of human WNK3 assessed as residual activity at 1 uM using RB-S6P as substrate in presence of 33P-ATP by ProQinase assay relative to control
[11] = molecular target: Protein-tyrosine kinase 2-beta (Homo sapiens) (UniProt Q14289); assay: Inhibition of PYK2 (unknown origin) assessed as remaining activity at 1 uM by Kinome scan method relative to control
[12] = molecular target: Casein kinase I isoform alpha-like (Homo sapiens) (UniProt Q8N752); assay: Inhibition of CSNK1A1L (unknown origin) assessed as remaining activity at 1 uM by Kinome scan method relative to control
[13] = molecular target: Tyrosine-protein kinase Yes (Homo sapiens) (UniProt P07947); assay: Inhibition of human YES assessed as residual activity at 1 uM using polyEY as substrate in presence of 33P-ATP by ProQinase assay relative to control
[14] = molecular target: Vascular endothelial growth factor receptor 1 (Homo sapiens) (UniProt P17948); assay: Inhibition of human VEGFR1 assessed as residual activity at 1 uM using polyEY as substrate in presence of 33P-ATP by ProQinase assay relative to control
[15] = molecular target: Mitogen-activated protein kinase 1 (Homo sapiens) (UniProt P28482); assay: Inhibition of ERK2 (unknown origin) assessed as remaining activity at 1 uM by Kinome scan method relative to control
[16] = molecular target: Mitogen-activated protein kinase 6 (Homo sapiens) (UniProt Q16659); assay: Inhibition of ERK3 (unknown origin) assessed as remaining activity at 1 uM by Kinome scan method relative to control
[17] = Anti-inflammatory activity against human derived high respond PBMC cells assessed as inhibition in stimulated IL-5 cytokine release at 10 uM incubated for 2 hrs in the presence of LPS/SEB/aCD28 by Luminex based sandwich immunoassay relative to control; assay type: functional
[18] = molecular target: Dual specificity protein kinase CLK2 (Homo sapiens) (UniProt P49760); assay: Inhibition of human CLK2 assessed as residual activity at 1 uM using RBER-GSK3 as substrate in presence of 33P-ATP by ProQinase assay relative to control
[19] = molecular target: Proto-oncogene tyrosine-protein kinase Src (Homo sapiens) (UniProt P12931); assay: Inhibition of human GST/His-tagged SRC assessed as residual activity at 1 uM using PolyEY as substrate in presence of 33P-ATP by ProQinase assay relative to control
[20] = molecular target: Serine/threonine-protein kinase N1 (Homo sapiens) (UniProt Q16512); assay: Inhibition of PKN1 (unknown origin) assessed as remaining activity at 1 uM by Kinome scan method relative to control
[21] = molecular target: Non-receptor tyrosine-protein kinase TYK2 (Homo sapiens) (UniProt P29597); assay: Inhibition of TYK2 JH2 domain (unknown origin) assessed as remaining activity at 1 uM by Kinome scan method relative to control
[22] = tested on: Hepatocyte growth factor receptor (Homo sapiens), P08581 [Y1235D]; assay: Inhibition of human MET Y1235D mutant assessed as residual activity at 1 uM using PolyEY as substrate in presence of 33P-ATP by ProQinase assay relative to control
[23] = molecular target: NT-3 growth factor receptor (Homo sapiens) (UniProt Q16288); assay: Inhibition of human TRKC assessed as residual activity at 1 uM using polyEy as substrate in presence of 33P-ATP by ProQinase assay relative to control
[24] = tested on: Epidermal growth factor receptor (Homo sapiens), P00533 [G719C]; assay: Inhibition of EGFR G719C mutant (unknown origin) assessed as remaining activity at 1 uM by Kinome scan method relative to control
[25] = molecular target: Serine/threonine-protein kinase PAK 3 (Homo sapiens) (UniProt O75914); assay: Inhibition of PAK3 (unknown origin) assessed as remaining activity at 1 uM by Kinome scan method relative to control
[26] = molecular target: MAP kinase p38 (Homo sapiens) (UniProt O15264+Q15759+Q16539+P53778); assay: Inhibition of p38-MAPK in human THP-1 cells assessed as change in HSP27 phosphorylation at Ser82 level at 80 nM preincubated for 30 mins in the presence of TNFalpha stimulation for 20 mins by western blot analysis; assay type: cell-based
[27] = molecular target: High affinity nerve growth factor receptor (Homo sapiens) (UniProt P04629); assay: Inhibition of TRKA (unknown origin) assessed as remaining activity at 1 uM by Kinome scan method relative to control
[28] = molecular target: Rhodopsin kinase GRK7 (Homo sapiens) (UniProt Q8WTQ7); assay: Inhibition of GRK7 (unknown origin) assessed as remaining activity at 1 uM by Kinome scan method relative to control

Chain of Tyrosine-protein kinase Fyn (Homo sapiens) (P06241 2-537 limits assumed): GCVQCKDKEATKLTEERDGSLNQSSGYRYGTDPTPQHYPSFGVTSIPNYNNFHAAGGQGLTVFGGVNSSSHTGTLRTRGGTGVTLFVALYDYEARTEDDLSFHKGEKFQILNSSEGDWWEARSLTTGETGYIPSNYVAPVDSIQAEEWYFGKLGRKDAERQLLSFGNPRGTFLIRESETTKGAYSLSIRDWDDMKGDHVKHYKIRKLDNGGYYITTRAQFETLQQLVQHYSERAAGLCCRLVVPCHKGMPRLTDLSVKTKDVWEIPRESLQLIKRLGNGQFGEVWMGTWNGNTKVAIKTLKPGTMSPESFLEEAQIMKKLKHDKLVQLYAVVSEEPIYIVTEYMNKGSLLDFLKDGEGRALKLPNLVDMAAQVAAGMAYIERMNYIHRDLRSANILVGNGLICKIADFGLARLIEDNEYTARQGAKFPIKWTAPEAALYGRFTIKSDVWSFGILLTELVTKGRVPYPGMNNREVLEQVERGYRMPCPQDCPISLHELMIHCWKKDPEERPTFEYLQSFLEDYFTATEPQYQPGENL
Chain of Leucine-rich repeat serine/threonine-protein kinase 2 (Homo sapiens), Q5S007 [R1441C] (Q5S007 whole entry R1441C): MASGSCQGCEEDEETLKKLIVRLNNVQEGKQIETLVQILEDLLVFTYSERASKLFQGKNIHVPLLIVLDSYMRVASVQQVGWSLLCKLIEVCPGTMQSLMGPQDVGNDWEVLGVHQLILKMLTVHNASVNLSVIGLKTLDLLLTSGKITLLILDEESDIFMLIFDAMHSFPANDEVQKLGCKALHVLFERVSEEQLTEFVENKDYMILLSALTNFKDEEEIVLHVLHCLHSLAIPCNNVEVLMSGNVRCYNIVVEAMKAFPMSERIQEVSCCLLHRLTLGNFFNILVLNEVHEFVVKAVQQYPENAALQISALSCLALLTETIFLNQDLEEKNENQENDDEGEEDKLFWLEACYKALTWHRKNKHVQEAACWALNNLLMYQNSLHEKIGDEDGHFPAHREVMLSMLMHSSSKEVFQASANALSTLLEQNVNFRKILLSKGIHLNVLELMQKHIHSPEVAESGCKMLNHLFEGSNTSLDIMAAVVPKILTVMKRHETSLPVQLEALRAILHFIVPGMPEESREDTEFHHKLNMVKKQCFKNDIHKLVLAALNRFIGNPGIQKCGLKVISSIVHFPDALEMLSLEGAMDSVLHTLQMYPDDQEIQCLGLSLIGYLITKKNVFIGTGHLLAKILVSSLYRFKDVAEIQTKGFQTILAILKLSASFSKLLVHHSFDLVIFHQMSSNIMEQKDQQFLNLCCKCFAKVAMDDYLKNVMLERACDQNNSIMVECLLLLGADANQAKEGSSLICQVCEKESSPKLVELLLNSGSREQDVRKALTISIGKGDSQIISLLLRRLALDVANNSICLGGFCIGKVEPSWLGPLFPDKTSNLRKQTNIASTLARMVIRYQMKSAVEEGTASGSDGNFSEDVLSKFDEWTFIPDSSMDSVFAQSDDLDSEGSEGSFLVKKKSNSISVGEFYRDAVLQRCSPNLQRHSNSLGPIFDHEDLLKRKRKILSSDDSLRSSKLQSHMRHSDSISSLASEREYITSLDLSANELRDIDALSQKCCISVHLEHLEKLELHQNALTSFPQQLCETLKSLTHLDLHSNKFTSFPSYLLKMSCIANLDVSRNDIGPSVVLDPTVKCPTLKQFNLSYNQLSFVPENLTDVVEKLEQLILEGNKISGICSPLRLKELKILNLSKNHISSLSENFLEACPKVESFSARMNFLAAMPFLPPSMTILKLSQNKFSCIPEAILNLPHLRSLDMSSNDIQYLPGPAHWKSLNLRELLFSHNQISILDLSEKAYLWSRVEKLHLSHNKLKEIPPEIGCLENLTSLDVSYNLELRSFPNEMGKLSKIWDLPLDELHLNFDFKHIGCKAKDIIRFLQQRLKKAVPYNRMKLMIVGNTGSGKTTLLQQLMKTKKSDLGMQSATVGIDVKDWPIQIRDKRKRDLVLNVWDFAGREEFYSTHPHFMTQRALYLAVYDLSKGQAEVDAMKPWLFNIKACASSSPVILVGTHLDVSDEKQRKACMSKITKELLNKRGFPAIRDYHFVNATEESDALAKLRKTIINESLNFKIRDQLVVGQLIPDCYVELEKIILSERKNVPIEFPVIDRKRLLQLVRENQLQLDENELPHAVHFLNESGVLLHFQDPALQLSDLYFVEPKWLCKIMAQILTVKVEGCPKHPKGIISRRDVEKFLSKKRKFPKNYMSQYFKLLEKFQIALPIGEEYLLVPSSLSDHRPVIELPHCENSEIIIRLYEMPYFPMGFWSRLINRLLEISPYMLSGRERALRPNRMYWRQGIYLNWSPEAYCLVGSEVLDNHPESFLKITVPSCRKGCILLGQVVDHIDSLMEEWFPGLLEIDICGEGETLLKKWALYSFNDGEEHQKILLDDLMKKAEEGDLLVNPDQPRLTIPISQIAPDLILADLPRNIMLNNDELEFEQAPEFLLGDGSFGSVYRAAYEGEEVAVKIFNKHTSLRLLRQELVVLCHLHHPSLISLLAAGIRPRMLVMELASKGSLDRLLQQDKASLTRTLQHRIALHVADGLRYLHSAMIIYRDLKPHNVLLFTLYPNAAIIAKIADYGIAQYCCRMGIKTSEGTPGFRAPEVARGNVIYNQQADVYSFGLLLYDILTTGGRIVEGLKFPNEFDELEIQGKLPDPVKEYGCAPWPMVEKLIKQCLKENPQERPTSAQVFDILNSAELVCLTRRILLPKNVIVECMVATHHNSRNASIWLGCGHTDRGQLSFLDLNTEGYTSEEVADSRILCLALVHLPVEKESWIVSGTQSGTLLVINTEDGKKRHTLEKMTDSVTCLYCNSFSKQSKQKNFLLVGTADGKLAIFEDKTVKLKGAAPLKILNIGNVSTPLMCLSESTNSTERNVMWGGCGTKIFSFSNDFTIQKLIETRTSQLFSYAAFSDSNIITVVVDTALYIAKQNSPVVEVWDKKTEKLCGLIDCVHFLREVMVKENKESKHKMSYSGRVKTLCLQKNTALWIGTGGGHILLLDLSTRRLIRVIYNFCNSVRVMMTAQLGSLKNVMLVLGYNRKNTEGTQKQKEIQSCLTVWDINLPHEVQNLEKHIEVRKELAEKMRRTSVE
Chain of Non-receptor tyrosine-protein kinase TYK2 (Homo sapiens) (P29597 whole entry, the tested form may be a part): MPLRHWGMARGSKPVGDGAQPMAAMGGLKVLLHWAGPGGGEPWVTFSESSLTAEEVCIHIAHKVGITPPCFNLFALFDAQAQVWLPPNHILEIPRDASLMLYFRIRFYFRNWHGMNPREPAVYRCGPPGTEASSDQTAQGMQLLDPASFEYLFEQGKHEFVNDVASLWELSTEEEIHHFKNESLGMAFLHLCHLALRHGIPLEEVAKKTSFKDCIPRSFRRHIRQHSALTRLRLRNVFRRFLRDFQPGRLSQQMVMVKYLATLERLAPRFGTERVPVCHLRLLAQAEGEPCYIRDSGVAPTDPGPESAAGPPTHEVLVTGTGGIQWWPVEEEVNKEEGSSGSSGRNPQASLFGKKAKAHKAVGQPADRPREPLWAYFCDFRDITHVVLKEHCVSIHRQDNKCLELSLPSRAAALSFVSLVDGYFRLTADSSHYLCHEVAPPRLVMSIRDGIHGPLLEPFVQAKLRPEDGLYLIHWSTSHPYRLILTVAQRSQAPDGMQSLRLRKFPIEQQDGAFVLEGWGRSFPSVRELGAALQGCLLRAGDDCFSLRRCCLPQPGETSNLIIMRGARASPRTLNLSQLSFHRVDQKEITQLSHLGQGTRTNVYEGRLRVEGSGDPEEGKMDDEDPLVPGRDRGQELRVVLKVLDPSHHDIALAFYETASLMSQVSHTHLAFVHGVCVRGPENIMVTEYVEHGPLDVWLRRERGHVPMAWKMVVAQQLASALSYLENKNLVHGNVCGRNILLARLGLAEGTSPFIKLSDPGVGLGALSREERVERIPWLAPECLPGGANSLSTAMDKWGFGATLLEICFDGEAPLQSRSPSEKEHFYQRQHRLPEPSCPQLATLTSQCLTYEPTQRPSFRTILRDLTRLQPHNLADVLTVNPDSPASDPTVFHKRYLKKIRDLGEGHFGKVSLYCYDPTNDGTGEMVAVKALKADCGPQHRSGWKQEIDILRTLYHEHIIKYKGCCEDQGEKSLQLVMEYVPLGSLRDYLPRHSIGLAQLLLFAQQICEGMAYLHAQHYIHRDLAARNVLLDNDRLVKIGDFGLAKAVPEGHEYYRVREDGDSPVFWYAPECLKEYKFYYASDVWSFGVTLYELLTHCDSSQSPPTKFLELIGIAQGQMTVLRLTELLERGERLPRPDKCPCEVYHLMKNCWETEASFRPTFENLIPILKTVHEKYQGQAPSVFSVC
Chain of Ribosomal protein S6 kinase alpha-2 (Homo sapiens) (Q15349 whole entry, the tested form may be a part): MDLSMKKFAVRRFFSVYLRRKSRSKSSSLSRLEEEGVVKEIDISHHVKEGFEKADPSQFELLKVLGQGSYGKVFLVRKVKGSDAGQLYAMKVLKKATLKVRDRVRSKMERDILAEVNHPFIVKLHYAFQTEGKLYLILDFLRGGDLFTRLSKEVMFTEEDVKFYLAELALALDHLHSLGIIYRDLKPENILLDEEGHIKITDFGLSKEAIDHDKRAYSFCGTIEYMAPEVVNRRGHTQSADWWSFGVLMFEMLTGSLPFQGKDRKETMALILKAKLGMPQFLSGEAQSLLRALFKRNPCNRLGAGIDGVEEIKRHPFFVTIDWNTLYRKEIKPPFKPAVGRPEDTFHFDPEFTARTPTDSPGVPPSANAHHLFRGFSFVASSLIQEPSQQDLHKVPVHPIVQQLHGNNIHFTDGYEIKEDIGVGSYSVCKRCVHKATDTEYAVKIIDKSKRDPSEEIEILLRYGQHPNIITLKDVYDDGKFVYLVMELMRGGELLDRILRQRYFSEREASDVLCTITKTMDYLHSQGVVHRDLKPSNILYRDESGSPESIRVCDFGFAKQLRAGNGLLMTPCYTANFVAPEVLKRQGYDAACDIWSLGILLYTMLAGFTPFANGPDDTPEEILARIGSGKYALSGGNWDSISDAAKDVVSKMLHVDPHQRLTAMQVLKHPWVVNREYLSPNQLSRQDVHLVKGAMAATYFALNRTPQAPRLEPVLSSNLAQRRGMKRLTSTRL

O=C1c2ccc(Nc3ccc(F)cc3F)cc2CCc2ccc(OC[C@H](O)CO)cc21 [Skepinone-L]
Activity [1]: 94% | Activity [2]: 99% | Activity [3]: 98% | Activity [4]: 89% | Activity [5]: 115% | IC50 [6]: Not Active | Activity [7]: 99% | Activity [8]: 100% | Activity [9]: 96% | Activity [10]: 100% | Activity [11]: 100% | Activity [12]: 98% | Activity [13]: 119% | Activity [14]: 113% | Activity [15]: 100% | Activity [16]: 100% | inhibition at 10 µM [17]: 50% | Activity [18]: 89% | Activity [19]: 119% | Activity [20]: 91% | Activity [21]: 100% | Activity [22]: 114% | Activity [23]: 120% | Activity [24]: 81% | Activity [25]: 100% | inhibition [26]: Active | Activity [27]: 88% | Activity [28]: 100%
